Source: article PMC3320615, “β-Microseminoprotein Endows Post Coital Seminal Plasma with Potent Candidacidal Activity by a Calcium- and pH-Dependent Mechanism” (PLoS Pathogens, 2012)

System: Candida albicans ATCC 90028
Assay: CFU assay with C. albicans
Format: cell-based
Details: 5 µM, pH 4; for Estimate (difference between means of log values): control - treatment
Text: Candida albicans strains: ATCC 90028, CAF-1-2, SC5814, BM4f35II68, vaginal clinical isolates from Dept. of Clincal Microbiology, Skåne University Hospital, SO_303369 and SO_503471. Candida parapsilosis strains: ATCC 90018, BD1800, BD17837, and BM24/68/09. Candida glabrata strains: ATCC 90030, clinical isolates from Dept. of Clincal Microbiology, Skåne University Hospital, SO_3336, SO_3400 and SO_503413. All strains were inoculated from frozen culture and grown in Yeast extract-Peptone-Dextrose (YPD) (Sigma) and on Sabourand Dextrose Broth (SAB) (Difco) plates at 30°C with 5% (v/v) CO2. If not otherwise stated, ATCC 90028 was used for candidacidal experiments.
Candida albicans was grown over night, washed, and resuspended in 10 mM Tris, 5 mM glucose, pH 7.4 or pH 4. Approximately 4×10^3 to 10^4 CFU of C. albicans were incubated with the test substance in low or neutral pH buffer for 4 h at 37°C. After incubation, the suspension was diluted and plated. Colonies were counted after two days incubation of the plates at 30°C. Bacteria from overnight cultures were inoculated in fresh medium and grown for 3 h, washed in 10 mM Tris, 5 mM glucose pH 7.4. Approximately 8×10^4 CFU were incubated with sample in 10 mM Tris, 5 mM glucose pH 7.4 or pH 4 for 1 h at 37°C, diluted, plated and incubated over night at 37°C and the colonies counted.
Statistical analysis was performed using SAS 9.2 software (SAS Institute, Cary, NC). Colony counts were log transformed. In order to choose the statistical method, interactions between the Treatment and Experiment were investigated. Treatments were screened by doing pair wise comparisons of each treatment to a control. Statistical tests used for the comparisons included MIXED procedure and LSMEANS statement. All tests where P-value<.05 were considered to indicate statistical significance. P-values were not adjusted for the multiple comparisons.
“Estimate” is the estimate of the difference between means of log values of treatment 1 and treatment 2

EWQTDNCETCTCYETEISCC [MSP3, synthetic MSP-derived peptide]
Estimate (difference between means of log values) (with EDTA, experiment 1): 0.09392
Estimate (difference between means of log values) (with EDTA, experiment 2): 0.05166
Estimate (difference between means of log values) (with EDTA, experiment 3): -0.02824
Estimate (difference between means of log values) (without EDTA, experiment 1): -0.2487
Estimate (difference between means of log values) (without EDTA, experiment 2): -0.7316
Estimate (difference between means of log values) (without EDTA, experiment 3): -0.09956

SCYFIPNEGVPGDSTRKCMD [MSP1, synthetic MSP-derived peptide]
Estimate (difference between means of log values) (with EDTA, experiment 1): -0.3564
Estimate (difference between means of log values) (with EDTA, experiment 2): -0.5558
Estimate (difference between means of log values) (with EDTA, experiment 3): -0.1369
Estimate (difference between means of log values) (without EDTA, experiment 1): -0.6949
Estimate (difference between means of log values) (without EDTA, experiment 2): -0.6938
Estimate (difference between means of log values) (without EDTA, experiment 3): -0.2057

KDNCQRIFKKEDCKYIVVEK [MSP5, synthetic MSP-derived peptide encompassing residues 61–80]
Fungicidal activity in CFU assay (rank among overlapping peptides): highest fungicidal activity of the tested peptides
Estimate (difference between means of log values) (with EDTA, experiment 1): 2.0492
Estimate (difference between means of log values) (with EDTA, experiment 2): 4.5365
Estimate (difference between means of log values) (with EDTA, experiment 3): 3.0952
Estimate (difference between means of log values) (without EDTA, experiment 1): 0.5704
Estimate (difference between means of log values) (without EDTA, experiment 2): 0.3334
Estimate (difference between means of log values) (without EDTA, experiment 3): 0.6913

IVVEKKDPKKTCSVSEWII [MSP6, synthetic MSP-derived peptide]
Estimate (difference between means of log values) (with EDTA, experiment 1): 1.6087
Estimate (difference between means of log values) (with EDTA, experiment 2): 3.2325
Estimate (difference between means of log values) (with EDTA, experiment 3): 0.6931
Estimate (difference between means of log values) (without EDTA, experiment 1): -0.00322
Estimate (difference between means of log values) (without EDTA, experiment 2): 0.07848
Estimate (difference between means of log values) (without EDTA, experiment 3): 0.9139

EISCCTLVSTPVGYDKDNCQ [MSP4, synthetic MSP-derived peptide]
Estimate (difference between means of log values) (with EDTA, experiment 1): -0.3731
Estimate (difference between means of log values) (with EDTA, experiment 2): -0.4012
Estimate (difference between means of log values) (with EDTA, experiment 3): -0.1411
Estimate (difference between means of log values) (without EDTA, experiment 1): -0.5304
Estimate (difference between means of log values) (without EDTA, experiment 2): -0.8100
Estimate (difference between means of log values) (without EDTA, experiment 3): -0.2155
